In patent US20200045972A1, “NOVEL 5-SUBSTITUTED IMIDAZOLYLMETHYL DERIVATIVES” (Bayer CropScience Aktiengesellschaft, priority 2016, published 2020):

Assay: Measurement of LogP values by HPLC on reversed phase columns (EEC directive 79/831 Annex V.A8)
Assay type: physicochemical
Settings: method [a]: LC-UV, acidic range, 0.1% formic acid in water and acetonitrile as eluent (linear gradient from 10% to 95% acetonitrile); for chromatographic logP: reversed phase HPLC column
Protocol: Measurement of LogP values was performed according to EEC directive 79/831 Annex V.A8 by HPLC (High Performance Liquid Chromatography) on reversed phase columns with the following methods: • ^[a] LogP value is determined by measurement of LC-UV, in an acidic range, with 0.1% formic acid in water and acetonitrile as eluent (linear gradient from 10% acetonitrile to 95% acetonitrile). • ^[b] LogP value is determined by measurement of LC-UV, in a neutral range, with 0.001 molar ammonium acetate solution in water and acetonitrile as eluent (linear gradient from 10% acetonitrile to 95% acetonitrile). • ^[c] LogP value is determined by measurement of LC-UV, in an acidic range, with 0.1% phosphoric acid and acetonitrile as eluent (linear gradient from 10% acetonitrile to 95% acetonitrile). If more than one LogP value is available within the same method, all the values are given and separated by “+”. Calibration was done with straight-chain alkan2-ones (with 3 to 16 carbon atoms) with known LogP values (measurement of LogP values using retention times with linear interpolation between successive alkanones). Lambda-max-values were determined using UV-spectra from 200 nm to 400 nm and the peak values of the chromatographic signals.

Row | chromatographic logP | LogP | SMILES
1 | 2.71 | – | N#Cc1cncn1CC(O)(CC1CC(c2ccccc2)=NO1)C1(Cl)CC1 (racemic) [Example I-05, 1-[2-(1-chlorocyclopropyl)-2-hydroxy-3-(3-phenyl-4,5-dihydro-1,2-oxazol-5-yl)propyl]-1H-imidazole-5-carbonitrile]
2 | – | 2.59 ^[a] | N#Cc1cncn1CC(O)(CC1CC(c2ccccc2)=NO1)C1(Cl)CC1 (racemic) [Example I-06, 1-[2-(1-chlorocyclopropyl)-2-hydroxy-3-(3-phenyl-4,5-dihydro-1,2-oxazol-5-yl)propyl]-1H-imidazole-5-carbonitrile]
3 | 2.54 | – | N#Cc1cncn1CC(O)(Cc1cc(-c2ccccc2)no1)C1(Cl)CC1 (stereo not drawn) [Example I-03, 1-[2-(1-chlorocyclopropyl)-2-hydroxy-3-(3-phenyl-1,2-oxazol-5-yl)propyl]-1H-imidazole-5-carbonitrile]
